Experimental data reported in patent US20110034472A1, “Novel Compounds for Treatment of Cancer and Disorders Associated With Angiogenesis Function” (UNIVERSITY OF SOUTHERN CALIFORNIA, priority 2004, published 2011).
“Also recorded” adds a separate entry of the source.

Experiments:
PC3 xenografts = test: PC3 human prostate cancer xenograft in athymic nude mice; assay type: in vivo
Procedure: FIG. 20. (A) is a schematic outline of tumor growth and dosing in PC3 mice xenografts. […] Athymic nude mice implanted with PC3 cells were treated with the indicated concentration of SC21 through daily i.p. administration for 5 d. Tumor growth was monitored for 5 wks. Values represent the tumor weight (mean±SD) for each group. (C) depicts dose-response to SC21 in the PC3 xenograft. Values represent the % T/C from each treatment group on the last day of measurement (after 5 wks); bars,±SD.
Fifty male athymic nude (nu/nu) mice (Charles River Laboratories, Wilmington, Mass.) were used for in vivo testing. The animals were fed ad libitum and kept in air conditioned rooms at 20±2° C. with a 12-hour light-dark period. Animal care and manipulation were in agreement with the University of Southern California Institutional Guidelines, which are in accordance with the Guidelines for the Care and Use of Laboratory Animals.
PC3 cells from in vitro cell culture were inoculated s.c. in both flanks of athymic nude mice (2×10^6 cells/flank) under aseptic conditions. Tumor growth was assessed by biweekly measurement of tumor diameters with a Vernier caliper (length×width). Tumor weight was calculated according to the formula: TW (mg)=tumor volume (mm^3)=d^2×D/2, where d and D are the shortest and longest diameters, respectively. Cells were allowed to grow to an average volume of 100 mm^3. Animals were then randomly assigned for control and treatment groups, to receive control vehicle or SC21 (0.3 and 3 mg/kg, dissolved in isotonic saline solution) via i.p. injections once a day for 5 days. Treatment of each animal was based on individual body weight. After 5 days of treatment, the tumor volumes in each group were measured […]. Treated animals were checked daily for treatment toxicity/mortality. The percentage of tumor growth inhibition was calculated as % T/C=100× (mean TW of treated group/mean TW of control group).
The in vivo efficacy of SC21 was evaluated in nude mice inoculated with human prostate PC3 cells. Animals were treated with daily i.p. injections of saline (controls) and SC21 at 0.3 or 3 mg/kg. After 5 days of dosing, the drug treatment was discontinued and the animals were monitored biweekly for 5 weeks.

T24 cells = test: Two-dimensional gel electrophoresis proteomic analysis, SC23; assay type: cell-based, human; conditions: 2D gel spots, SC23 treatment
Procedure: Cells were treated for 12, 24, 48 and 72 hr with SC23 (IC80 dose). The soluble fraction was then extracted and quantified. […] of protein was loaded in the first dimension gel at 800 V for 16 h. Gels were then equilibrated, separated on a 12% SDS-PAGE gel for the second dimension, stained with CyproRuby, and imaged by Typhoon 9100.
SC23-Treated Cells Upregulate a Variety of Proteins in the Molecular Weight Range of 8-58 kDa. […] 2DE was then used to separate these proteins (FIG. 29). As above, treatment with SC23 led to a significant up-regulation of many proteins. Similar analysis was carried out for DU145 cells treated with SC23.
Proteins identified from the spots shown in FIG. 30 are 3-tubulin, myc promoter-binding protein (MPB-1), retinoblastoma-binding protein 7, vimentin, enolase, phosphopyruvate hydratase beta, mitochondrial ATP synthase beta chain.
Among the several spots that were at least 4-fold overexpressed was β-tubulin, which is related to the top three genes identified from our microarray analysis as described above.

[1] = system: HCT 116 p53^−/− colon cancer cells; test: MTT cytotoxicity assay, HCT 116 p53-/-; assay type: cell-based, human; conditions: Homo sapiens, 72 h
Text: (§1) Human breast cancer cells MDA-MB-435 and colon cancer HT29, p53 mutant were purchased from the American Type Cell Culture (Manassas, Va.). The HCT116 P53^+/+ and HCT116 P53^−/− cells were kindly provided by Dr. Bert Vogelstein (Johns Hopkins Medical Institutions, Baltimore, Md.). Human prostate cancer cells, LNCaP, were kindly provided by Richard Cote (University of Southern California Keck School of Medicine). Cells were maintained as monolayer cultures in RPMI 1640 media supplemented with 10% fetal bovine serum (Gemini-Bioproducts, Woodland, Calif.) and 2 mmol/L L-glutamine at 37° C. in a humidified atmosphere of 5% CO2. To remove the adherent cells from the flask for passaging and counting, cells were washed with PBS without calcium or magnesium, incubated with a small volume of 0.25% trypsin-EDTA solution (Sigma-Aldrich, St. Louis, Mo.) for 5-10 min, and washed with culture medium and centrifuged. All experiments were performed using cells at exponential growth stage. Cells were routinely checked for mycoplasma contamination using a PCR-based assay (Stratagene, Cambridge, UK).
(§2) Cytotoxicity was assessed by a 3-(4,5-dimethylthiazol-2-yl)-2,5-diphenyltetrazolium bromide (MTT) assay as previously described.^9 Briefly, cells were seeded in 96-well microtiter plates and allowed to attach. Cells were subsequently treated with continuous exposure to the corresponding drug for 72 h. An MTT solution (at a final concentration of 0.5 mg/mL) was added to each well, and cells were incubated for 4 h at 37° C. After removal of the medium, DMSO was added and the absorbance was read at 570 nm. All assays were done in triplicate. The IC50 was then determined for each drug from a plot of log (drug concentration) versus percentage of cells killed.

[2] = system: HOP-92 non-small cell lung cancer cells; test: Sensitivity of various cancer cells to SC144, HOP-92; assay type: cell-based; conditions: Homo sapiens
Text: (§3) The studies were expanded to other cell lines. […] Subnanomolar to low nanomolar potency was also observed in HCT-116 and HT29 colon cancer cell lines (Table 2).

HT29 colon cancer cells [3] = test: MTT cytotoxicity assay, HT 29; assay type: cell-based, human; conditions: Homo sapiens, 72 h
Text: as §1, §2

[4] = system: HCT 116 p53^+/+ colon cancer cells; test: MTT cytotoxicity assay, HCT 116 p53+/+; assay type: cell-based, human; conditions: Homo sapiens, 72 h
Text: as §1, §2

HT29 colon cancer cells [5] = test: Sensitivity of various cancer cells to SC144, HT29; assay type: cell-based; conditions: Homo sapiens, HT-29
Text: as §3

MDA-MB-435 xenograft = test: microPET study of nude mouse with MDA-MB-435 xenograft treated with SC144; assay type: in vivo; conditions: 4 mg/kg daily i.p. 5 days; caliper measurements for 5 weeks
Procedure: Top row, baseline scans: (A) equilibrium-phase FDG, 30 min post injection; (B) FMAU, 10 min post injection; (C) FMAU, 60 min post injection. Bottom row, follow-up scans: (D) FDG, 30 min post injection; (E) FMAU, 10 min post injection; (F) FMAU, 60 min post injection. […] After five days of dosing, the drug treatment was discontinued and the follow-up scans were obtained on days 6 and 7.
[^18F]FDG is currently the most widely used radiotracer for imaging therapy response in oncology with PET. PET/[^18F]FDG measures viable cell density in tumors and also provides information on the expression of glucose transporters and hexokinase activity. […] Following cellular uptake, FMAU is phosphorylated by thymidine kinase and incorporated into DNA.
In later images at 30 and 60 min (FIG. 8C), FMAU had filled up the whole tumor, indicating the presence of dividing cells throughout.
FIGS. 8D-F show a repeat study of the same mouse after 5 days of treatment.

[6] = 0.3 or 3 mg/kg daily i.p. for 5 days

With `O=C(NNC(=O)c1ccccc1O)C1=CC2C=CC=CC2C=C1O` (centres unmarked) [SC21] the “average weight of mice” value (PC3 xenografts; 0.3 mg/kg of SC21) was 32.1 ± 1.92 g, the “average weight of mice” value (PC3 xenografts; 3.0 mg/kg of SC21) was 33.3 ± 1.89 g and the “tolerability, drug-related deaths, body weight” value (PC3 xenografts; [6]) was “well-tolerated and did not result in any drug-related deaths and changes in body weight”. The “tumor burden / tumor growth” value (PC3 xenografts; [6]) was “significantly reduced tumor burden; also recorded: Significant reduction in tumor growth”.

`O=C(NNC(O)c1cc2ccccc2cc1O)c1cc2ccccc2cc1O` (centres unmarked) [SC23] was tested, and the β-tubulin protein overexpression (T24 cells) was “at least 4 fold”.

`O=C(NNc1nc2cc(F)ccc2n2cccc12)c1cnccn1` [SC144, Pyrazine-2-carboxylic acid N′-(7-fluoro-pyrrolo[1,2-a]quinoxalin-4-yl)-hydrazide] was tested, and the IC50 [1] was 0.9 ± 0.04 µM, the CC50 [2] was 0.2 µM and the IC50 (HT29 colon cancer cells [3]) was 0.9 ± 0.06 µM. The IC50 [4] was 0.6 ± 0.07 µM, the CC50 (HT29 colon cancer cells [5]) was 0.078 µM and the “long-term reduction of tumor volume compared with sham-treated control mice” value (MDA-MB-435 xenograft) was greater than 50%.
